From ChEMBL document CHEMBL3217660, “Design, synthesis and antiproliferative activity of urocanic-chalcone hybrid derivatives” (Medchemcomm, 2011)

Key:
HT-29 [1] = test: Antiproliferative activity against human HT-29 cells assessed as inhibition of cell proliferation after 3 days by MTS assay; type: functional, cell-based; settings: HT-29, 72 h
MDA-MB-231 = test: Antiproliferative activity against human MDA-MB-231 cells assessed as inhibition of cell proliferation after 3 days by MTS assay; type: functional, cell-based; settings: MDA-MB-231, 72 h
LNCaP = test: Antiproliferative activity against human LNCAP cells assessed as inhibition of cell proliferation after 3 days by MTS assay; type: functional, cell-based; settings: 72 h
[2] = Antiproliferative activity against human FEK4 cells assessed as inhibition of cell proliferation after 3 days by MTS assay; type: cell-based; settings: FEK4, 72 h
Tubulin (Homo sapiens) = Tubulin (Homo sapiens) (UniProt P68371+Q9H4B7+P0DPH7+P68366+Q13509+Q71U36+P04350+Q3ZCM7+P07437+P68363+Q9BQE3+Q6PEY2+Q13885+Q9BVA1+Q9BUF5); test: Induction of tubulin (unknown origin) polymerization; type: protein-complex assay
HCT-116 = test: Inhibition of human HCT116 cell proliferation; type: functional, cell-based
A2780 = test: Inhibition of human A2780 cell proliferation; type: functional, cell-based
K562 = test: Inhibition of human K562 cell proliferation; type: functional, cell-based
HT-29 [3] = test: Inhibition of human HT-29 cell proliferation; type: functional, cell-based

| IC50 (HT-29 [1]) [µM] | IC50 (MDA-MB-231) [µM] | IC50 (LNCaP) [µM] | ED90 (Tubulin (Homo sapiens)) [µM] | IC50 (HCT-116) [µM] | IC50 (A2780) [µM] | IC50 (K562) [µM] | IC50 (HT-29 [3]) [µM] | Structure (SMILES) | IC50 [2] [µM] |
| --- | --- | --- | --- | --- | --- | --- | --- | --- | --- |
| 5 | 4.9 | 17.1 | – | – | – | – | – | COc1cc(C(=O)/C=C/c2ncc[nH]2)cc(OC)c1OC | 28.6 |
| 15.9 | 16.9 | 30.6 | – | – | – | – | – | COc1cc(C(=O)/C=C/c2cncn2C)cc(OC)c1OC | 49.9 |
| – | – | – | 6 | – | – | – | – | Cn1cnc(/C=C/C(=O)O[C@H]2C/C=C\CC[C@@H]3C=C[C@H]2O3)c1 | – |
| 43 | 49.9 | 59.9 | – | – | – | – | – | COc1cc(C(=O)/C=C/c2ccc[nH]2)cc(OC)c1OC | 156 |
| > 500 | 223 | 368 | – | – | – | – | – | COc1cc(C(=O)CCc2cnc[nH]2)cc(OC)c1OC | > 500 |
| 2.9 | 4.8 | 48.4 | – | – | – | – | – | COc1cc(C(=O)/C=C/c2cn(C)cn2)cc(OC)c1OC | 85 |
| > 500 | > 500 | > 500 | – | – | – | – | – | COc1ccc(C(=O)/C=C/c2ccc[nH]2)cc1 | > 500 |
| 4.2 | 4.9 | 11 | – | – | – | – | – | COc1cc(C(=O)/C=C/c2nccn2C)cc(OC)c1OC | 17.5 |
| – | – | – | 0.5 | 0.9 | 1.9 | 2.3 | – | COc1ccc(O[C@@H]2/C=C\CC(O)C[C@@H]3[C@@H](C(C)C)CC=C(C)[C@@H]3C[C@@H]2OC(=O)/C=C/c2cn(C)cn2)cc1 (single isomer, unassigned) | – |
| 0.164 | 0.12 | 0.154 | – | – | – | – | – | COc1cccc2c1C(=O)c1c(O)c3c(c(O)c1C2=O)C[C@@](O)(C(=O)CO)C[C@@H]3O[C@H]1C[C@H](N)[C@H](O)[C@H](C)O1 [DOXORUBICIN] | – |
| < 0.005 | – | – | 0.5 | – | – | – | – | CC(=O)O[C@H]1C(=O)[C@@]2(C)[C@H]([C@H](OC(=O)c3ccccc3)[C@]3(O)C[C@H](OC(=O)[C@H](O)[C@@H](NC(=O)c4ccccc4)c4ccccc4)C(C)=C1C3(C)C)[C@]1(OC(C)=O)CO[C@@H]1C[C@@H]2O [PACLITAXEL] | – |
| – | – | – | 3 | – | – | – | – | O[C@H]1C/C=C\CC[C@@H]2C=C[C@H]1O2 | – |
| 5 | – | – | 1.8 | 4 | 4 | – | 5 | CC1=CC[C@H](C(C)C)[C@H]2C[C@H](OC(=O)C(C)(C)C)[C@@H](O)/C=C\C[C@@H](OC(=O)/C=C/c3cn(C)cn3)C[C@@H]12 | – |
| 19.5 | 22.9 | 48.1 | – | – | – | – | – | COc1cc(C(=O)/C=C/c2cnc[nH]2)cc(OC)c1OC | 53.2 |
| 12.5 | 18 | 69.5 | – | – | – | – | – | COc1cc(C(=O)/C=C/c2cccn2C)cc(OC)c1OC | 118 |
| 61.8 | 53.5 | 75.5 | – | – | – | – | – | COc1ccc(C(=O)/C=C/c2cccn2C)cc1 | 188 |
| 60.4 | 42.8 | 56.3 | – | – | – | – | – | COc1ccc(C(=O)/C=C/c2cccn2C)cc1OC | 162 |
| 86 | 102 | 105 | – | – | – | – | – | COc1ccc(C(=O)/C=C/c2ccc[nH]2)cc1OC | 135 |

| Structure (SMILES) | IC50 (HT-29 [1]) [µM] | IC50 (MDA-MB-231) [µM] | IC50 (LNCaP) [µM] | ED90 (Tubulin (Homo sapiens)) [µM] | IC50 (HCT-116) [µM] | IC50 (A2780) [µM] | IC50 (K562) [µM] | IC50 (HT-29 [3]) [µM] | IC50 [2] [µM] |
| --- | --- | --- | --- | --- | --- | --- | --- | --- | --- |
| COc1ccc(C(=O)/C=C/c2cnc[nH]2)cc1OC | 37.9 | 18.2 | 46.2 | – | – | – | – | – | 84.2 |
